Test results published in patent publication US9271971B2, “Pyrido[3,4-B]indoles and methods of use” (Medivation Technologies, Inc., priority 2009, dated 2016).

How the values were obtained:
[1] = biological target: T1, human recombinant serotonin (5-Hydroxytryptamine) 5-HT6 receptor (Homo sapiens, UniProt P50406); test: Serotonin 5-HT6 radioligand binding assay; conditions: [3H]LSD specific binding, read-out: Percent Inhibition of ligand binding, Serotonin (1 μM ligand concentration) 5-HT6
T1 construct: expressed in transfected cells; host or cells: human HeLa cells
Method: To evaluate in radioligand binding assays the activity of compounds of the invention, human recombinant serotonin (5-Hydroxytryptamine) 5-HT6 receptor expressed in human HeLa cells [Monsma, F. J. Jr et al., Mol. Pharmacol. (1993), 43:320] in a modified Tris-HCl buffer (50 mM Tris-HCl, pH 7.4, 150 mM NaCl, 2 mM Ascorbic Acid, 0.001% BSA) was used. Compounds of the invention were incubated with 1.5 nM [3H]Lysergic acid diethylamide (LSD) for 120 min. at 37° C. Non-specific binding was estimated in the presence of 5 μM Serotonin (5-HT). Receptor proteins were filtered and washed, the filters were then counted to determine[3H]LSD specifically bound. Compounds were screened at 1 μM or lower, using 1% DMSO as vehicle. Biochemical assay results are presented as the percent inhibition of specific binding in Table 4.

[2] = biological target: T2, human recombinant serotonin (5-Hydroxytryptamine) 5-HT2C receptor (Homo sapiens, UniProt P28335); test: Serotonin 5-HT2C radioligand binding assay; conditions: [3H]Mesulergine specific binding, read-out: Percent Inhibition of ligand binding, Serotonin (1 μM ligand concentration) 5-HT2C
T2 construct: expressed in transfected cells; host or cells: Chinese hamster ovary (CHO-K1) cells
T2 sequence (P28335 33-458): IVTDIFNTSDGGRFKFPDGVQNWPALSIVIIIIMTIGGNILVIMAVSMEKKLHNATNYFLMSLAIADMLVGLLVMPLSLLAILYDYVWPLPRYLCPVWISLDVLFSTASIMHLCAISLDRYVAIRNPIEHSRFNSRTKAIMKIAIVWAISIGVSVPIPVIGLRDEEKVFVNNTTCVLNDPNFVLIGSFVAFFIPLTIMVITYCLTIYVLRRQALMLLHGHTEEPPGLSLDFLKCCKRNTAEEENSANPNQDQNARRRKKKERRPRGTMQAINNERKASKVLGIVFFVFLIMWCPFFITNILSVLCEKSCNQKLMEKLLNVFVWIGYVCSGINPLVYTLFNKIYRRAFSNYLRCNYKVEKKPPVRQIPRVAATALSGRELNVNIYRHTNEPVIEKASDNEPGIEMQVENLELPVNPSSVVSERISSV
Method: To evaluate in radioligand binding assays the activity of compounds of the invention, human recombinant serotonin (5-Hydroxytryptamine) 5-HT2C receptor expressed in Chinese hamster ovary (CHO-K1) cells [Wolf, W. A. et al., J. Neurochem. (1997), 69:1449] in a modified Tris-HCl buffer (50 mM Tris-HCl, pH 7.4, 0.1% Ascorbic Acid, 10 μM Pargyline) was used. Compounds of the invention were incubated with 1 nM [^3H]Mesulergine for 60 min. at 25° C. Non-specific binding was estimated in the presence of 1 μM Mianserin. Receptor proteins were filtered and washed, the filters were then counted to determine [^3H]Mesulergine specifically bound. Compounds were screened at 1 μM or lower, using 1% DMSO as vehicle. Biochemical assay results are presented as the percent inhibition of specific binding in Table 4.

[3] = biological target: T3, human recombinant adrenergic α2B receptor (Homo sapiens, UniProt P18089); test: Adrenergic α2B radioligand binding assay; conditions: [3H]Rauwolscine specific binding; for inhibition at 1 µM: read-out: Percent Inhibition of ligand binding, Adrenergic (1 μM ligand conc.) α2B; for inhibition at 0.1 µM: read-out: Percent Inhibition of ligand binding, Adrenergic (0.1 μM ligand conc.) α2B
T3 construct: expressed in transfected cells; host or cells: Chinese hamster ovary (CHO-K1) cells
T3 sequence (P18089 1-450): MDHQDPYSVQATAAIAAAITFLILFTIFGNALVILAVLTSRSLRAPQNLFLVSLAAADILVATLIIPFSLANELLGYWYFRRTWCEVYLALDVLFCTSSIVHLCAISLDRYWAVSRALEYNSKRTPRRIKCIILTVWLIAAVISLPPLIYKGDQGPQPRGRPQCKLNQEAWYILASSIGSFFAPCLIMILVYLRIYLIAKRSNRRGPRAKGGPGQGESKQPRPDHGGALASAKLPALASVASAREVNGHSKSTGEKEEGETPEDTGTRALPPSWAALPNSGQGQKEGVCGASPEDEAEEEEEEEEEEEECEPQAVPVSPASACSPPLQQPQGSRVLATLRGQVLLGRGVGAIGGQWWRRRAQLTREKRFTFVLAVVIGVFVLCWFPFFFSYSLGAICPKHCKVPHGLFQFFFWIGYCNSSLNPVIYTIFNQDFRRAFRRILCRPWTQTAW
Method: To evaluate in radioligand binding assays the activity of compounds of the invention, human recombinant adrenergic α2B receptor expressed in Chinese hamster ovary (CHO-K1) cells [Uhlen, S et al., Eur J Pharmacol. (1998), 343(1):93] in a modified Tris-HCl buffer (50 mM Tris-HCl, pH 7.4, 12.5 mM MgCl2, 1 mM EDTA, 0.2% BSA) was used. Compounds of the invention were incubated with 2.5 nM [^3H]Rauwolscine for 60 min. at 25° C. Non-specific binding was estimated in the presence of 10 μM Prozosin. Receptor proteins were filtered and washed, the filters were then counted to determine [^3H]Rauwolscine specifically bound. Compounds were screened at 1 μM or lower, using 1% DMSO as vehicle. Compounds of the invention were tested in this biochemical assay. Biochemical assay results for representative compounds were presented as the percent inhibition of specific binding in Table 3.

[4] = biological target: human recombinant dopamine D2L receptor (Homo sapiens, UniProt P14416); test: Dopamine D2L radioligand binding assay; conditions: [3H]Spiperone specific binding; for inhibition at 1 µM: read-out: Percent Inhibition of ligand binding, Dopamine (1 μM ligand conc.) D2L
Method: To evaluate in radioligand binding assays the activity of compounds of the invention, human recombinant dopamine D2L receptor expressed in Chinese hamster ovary (CHO) cells [Grandy, D. K. et al. Proc. Natl. Acad. Sci. USA. (1989), 86:9762; Hayes, G. et al., Mol. Endocrinol. (1992), 6:920] in a modified Tris-HCl buffer (50 mM Tris-HCl, pH 7.4, 1.4 mM Ascorbic Acid, 0.001% BSA, 150 mM NaCl) was used. Compounds of the invention were incubated with 0.16 nM [^3H]Spiperone for 120 min. at 25° C. Non-specific binding was estimated in the presence of 10 μM Haloperidol. Receptor proteins were filtered and washed, the filters were then counted to determine [^3H]Spiperone specifically bound. Compounds were screened at 1 μM or lower, using 1% DMSO as vehicle. Biochemical assay results are presented as the percent inhibition of specific binding in Table 3.

T1 sequence (P50406 whole entry): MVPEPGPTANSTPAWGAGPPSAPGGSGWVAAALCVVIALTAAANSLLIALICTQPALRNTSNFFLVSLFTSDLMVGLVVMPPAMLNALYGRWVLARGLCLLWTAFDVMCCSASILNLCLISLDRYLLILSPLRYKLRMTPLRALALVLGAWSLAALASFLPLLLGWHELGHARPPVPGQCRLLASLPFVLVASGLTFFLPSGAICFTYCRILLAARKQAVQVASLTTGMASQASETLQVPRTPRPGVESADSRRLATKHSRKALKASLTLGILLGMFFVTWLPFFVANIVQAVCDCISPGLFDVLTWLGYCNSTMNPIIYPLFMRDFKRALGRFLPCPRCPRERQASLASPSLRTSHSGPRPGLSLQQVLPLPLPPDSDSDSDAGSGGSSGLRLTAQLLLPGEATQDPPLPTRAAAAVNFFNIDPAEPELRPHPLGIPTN
Chain of human recombinant dopamine D2L receptor (P14416 whole entry): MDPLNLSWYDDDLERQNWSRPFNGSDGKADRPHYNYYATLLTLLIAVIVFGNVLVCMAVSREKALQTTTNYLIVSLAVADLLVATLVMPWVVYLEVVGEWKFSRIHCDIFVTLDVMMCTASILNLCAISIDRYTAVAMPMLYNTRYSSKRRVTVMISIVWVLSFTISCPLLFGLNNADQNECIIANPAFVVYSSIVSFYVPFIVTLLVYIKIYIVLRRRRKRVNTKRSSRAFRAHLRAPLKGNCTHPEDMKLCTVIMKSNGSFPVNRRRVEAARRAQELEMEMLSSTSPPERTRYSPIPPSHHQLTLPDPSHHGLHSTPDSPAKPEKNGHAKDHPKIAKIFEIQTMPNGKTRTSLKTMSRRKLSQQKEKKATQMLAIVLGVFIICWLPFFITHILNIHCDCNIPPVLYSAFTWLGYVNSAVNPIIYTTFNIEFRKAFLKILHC

| SMILES | inhibition at 1 µM [1] [%] | inhibition at 1 µM [2] [%] | inhibition at 1 µM [3] [%] | inhibition at 1 µM [4] [%] | inhibition at 0.1 µM [3] [%] | Percent Inhibition of ligand binding, Dopamine (1 μM ligand conc.) D2L [4] [%] |
| --- | --- | --- | --- | --- | --- | --- |
| Cc1ccc2c(c1)c1c(n2CC(C)(O)c2ccc(F)cc2)CN2CCC1C2 (stereo not drawn) [Compound 2] | 58 | 57 | 84 | 7 | – | – |
| Cc1ccc2c(c1)c1c(n2CCc2ccncc2)CN2CCC1C2 (stereo not drawn) [Compound 30] | 33 | 85 | 76 | 10 | – | – |
| Cc1ccc2c(c1)c1c(n2CC(=O)c2ccc(Cl)cc2)CN2CCC1C2 (stereo not drawn) [Compound 29] | 32 | 74 | 58 | 0 | – | – |
| Cc1ccc(C(O)Cn2c3c(c4cc(C)ccc42)C2CCN(C3)C2)cc1 (stereo not drawn) [Compound 5] | 14 | 53 | 78 | 6 | – | – |
| Cc1ccc2c(c1)c1c(n2CC(=O)N2CCNCC2)CN2CCC1C2 (stereo not drawn) [Compound 24] | 5 | 5 | -4 | -8 | – | – |
| Cc1ccc2c(c1)c1c(n2CC(O)c2ccc(F)cc2)CN2CCC1C2 (stereo not drawn) [Compound 31] | 46 | 46 | 79 | 2 | – | – |
| COc1ccc(C(O)Cn2c3c(c4cc(C)ccc42)C2CCN(C3)C2)cc1OC (stereo not drawn) [Compound 8] | 11 | 12 | 34 | -16 | – | – |
| Cc1ccc2c(c1)c1c(n2CCc2ccc(C)nc2)CN2CCC1C2 (stereo not drawn) [Compound 12] | 2 | 5 | 16 | 0 | – | – |
| Cc1ccc2c(c1)c1c(n2C(=O)Cc2ccc(Cl)cc2)CN2CCC1C2 (stereo not drawn) [Compound 36] | 38 | 89 | – | 3 | 13 | – |
| C=C(Cn1c2c(c3cc(C)ccc31)C1CCN(C2)C1)c1ccc(F)cc1 (stereo not drawn) [Compound 3] | 105 | 97 | 93 | 12 | – | 21 |
| Cc1ccc(C(C)(O)Cn2c3c(c4cc(C)ccc42)C2CCN(C3)C2)cc1 (stereo not drawn) [Compound 20] | 13 | 94 | 97 | 9 | – | – |
| C/C(=C\n1c2c(c3cc(C)ccc31)C1CCN(C2)C1)c1ccc(Cl)cc1 (stereo not drawn) [Compound 32] | 97 | 92 | 98 | -12 | 56 | – |
| Cc1ccc2c(c1)c1c(n2CC(C)(O)c2ccc(F)cc2F)CN2CCC1C2 (stereo not drawn) [Compound 17] | 9 | 92 | 90 | 5 | – | – |
| Cc1ccc2c(c1)c1c(n2CCc2ccc(C(F)(F)F)nc2)CN2CCC1C2 (stereo not drawn) [Compound 1] | 10 | 10 | 7 | 8 | – | – |
| Cc1ccc2c(c1)c1c(n2CC(=O)N2CCC(C)CC2)CN2CCC1C2 (stereo not drawn) [Compound 25] | -2 | 15 | -17 | 9 | – | – |
| Cc1ccc2c(c1)c1c(n2CC(=O)c2ccc(F)cc2)CN2CCC1C2 (stereo not drawn) [Compound 28] | 15 | 83 | 45 | 1 | – | – |
| COc1ccc(/C(C)=C/n2c3c(c4cc(C)ccc42)C2CCN(C3)C2)cc1 (stereo not drawn) [Compound 45] | 80 | 98 | – | -2 | 15 | – |
| Cc1ccc2c(c1)c1c(n2CC(C)(O)c2ccc(F)c(Cl)c2)CN2CCC1C2 (stereo not drawn) [Compound 18] | 49 | 87 | 107 | -1 | – | – |
| Cc1ccc2c(c1)c1c(n2CC(=O)N(C)C)CN2CCC1C2 (stereo not drawn) [Compound 27] | 5 | -1 | -15 | 11 | – | – |
